The values below come from publication PMC2191575 (The Journal of Experimental Medicine, 1994).

The test system of this experiment is chimeric human/mouse MHC class II molecules. In kind it is binding.

In the case of “influenza nucleoprotein (383-395): DR-restricted synthetic peptide (SRYWAIRTRSGGN)”, the “binding to chimeric MHC class II molecules” value is recorded as “Specific binding was also observed”.
